This is an account of results in paper PMC9059126, “Structure-Based Design of a Novel Class of Autotaxin Inhibitors Based on Endogenous Allosteric Modulators” (Journal of Medicinal Chemistry, 2022).

The target in test [1] is T1, ATX (Rattus norvegicus, UniProt Q64610). In words: Choline oxidase-coupled choline-release assay of LPC hydrolysis by ATX. Conditions: for inhibition at 100 µM: read-out: %Inhibition at 100 μM; for IC50 / Residual Activity (%): 20 nM ATX.
The next test deals with BJeH fibroblasts. In words: AKT and ERK phosphorylation by western blotting. The class given is cell-based. The conditions noted are these: Homo sapiens, 0.25 h, 15 min. Here is the method:
100,000 BJeH cells were seeded in 12-well tissue culture plates and allowed to grow for 24 h in DMEM (GIBCO, Life Technologies) containing 10% FCS (Thermo Scientific) and 100 U mL^–1 streptomycin/penicillin (GIBCO, Life Technologies). Next, they were washed twice with phosphate-buffered saline (PBS) and serum-starved O/N. ATX 20 nM was incubated with inhibitors for 30 min in a serum-free medium containing 0.05% (w/v) fatty acid-free BSA (total volume 1 mL). The medium from the 12-well plates was removed and replaced with 1 mL of the ATX–inhibitor mixture. Cells were stimulated for 15 min, the medium was removed, and plates were immediately frozen on dry ice and stored at −80 °C. For western blotting, cells were washed with cold PBS; lysed in RIPA buffer; supplemented with protease inhibitors (Pierce), 20 mM NaF and 1 mM orthovanadate; and spun down. The protein concentration was measured using a BCA protein assay kit (Pierce), and LDS sample buffer (NuPAGE, Invitrogen) and 1 mM dithiothreitol were added to the lysate. 20 μg of the total protein was loaded on sodium dodecyl sulfate–polyacrylamide gel electrophoresis pre-cast gradient gels (4–12% Nu-Page Bis-Tris, Invitrogen), followed by transfer to a nitrocellulose membrane. Non-specific protein binding was blocked by 5% BSA in PBS-Tween (0.1%); the primary antibodies were phospho-Akt (Ser473), catalogue number: D93, dilution: 1:1,000; phospho-ERK1/2 (Thr202/Tyr204), catalogue number: D13.14.4E, dilution: 1:2,000, from Cell Signaling Technology. They were incubated O/N at 4 °C in PBS–Tween with 5% BSA, containing 0.1% NaN3. Blots were then incubated for 1 h at room temperature with monoclonal anti-β-actin antibody, clone AC-15, dilution: 1:10,000, from Sigma, which was dissolved in PBS–Tween with 5% skimmed milk containing 0.1% NaN3. HRP-conjugated secondary antibodies [goat anti-mouse (Bio-Rad), catalogue number: 1721011; goat anti-rabbit (Pierce), catalogue number: 1858415] were incubated for 1 h at room temperature in PBS–Tween with 2.5% BSA and developed using an ECL Western blot reagent.
Background: Immunoblotting shows a protein as a band on a membrane.

Test [2] addresses T1, ATX. In words: Mechanistic studies: mode of inhibition and Ki from LPC titration. Details: made in house. It counts as biochemical. The method, then: The biochemical studies of ATX lysoPLD activity were performed with ATX. Activity was measured by a coupled reaction with 1 U mL^–1 choline oxidase and 2 U mL^–1 horseradish peroxidase (HRP) and 2 mM homovanillic acid (HVA) (all from Sigma-Aldrich). For the assays, 14:0, 16:0, 18:1, and 20:0 LPC (Avanti Polar Lipids Inc.) were incubated with 20 nM ATX, reaching a final volume of 100 μL of the buffer, which contained 50 mM Tris, 0.01%, 50 mM CaCl2, Triton X-100, pH 7.4. Steady-state choline release was measured at 37 °C by HVA fluorescence at λex/λem = 320/460 nm in Corning 96- or 384-well OptiPlate (Sigma-Aldrich) and with a Pherastar plate reader (BMG Labtech). […] The resulting fluorescence intensity signal over time was used to model all inhibitor concentrations simultaneously using the following formula, where vmax and vmin were fitted for the minimum and maximum relative velocities, respectively, and ci corresponds to the inhibitor concentration for each assay[20] [drawing 1] 1
To statistically determine the chance of each type of inhibition, we calculated the α value in the partial mixed inhibition model (eq 5), where Part defines the partiality of the inhibition, and α > 1 or α = 1 correspond to competitive and non-competitive inhibition modes, respectively. Last, we utilized Akaike’s Information Criterion[42] to assess the significance of the analysis [drawing 5] 5

Test [3] concerns the target T1, ATX. In words: Competition with LPA allostery (LPA-mediated activation of ATX). The class given is biochemical. More on the design: made in house. The conditions noted are these: inhibitor at concentrations close to or lower than IC50; 150 μM 18:1 LPC, 18:1 LPA, 20 nM ATX. The method, then:
The activation assays using LPA were performed in a similar way to those done for the inhibitors. In this case, LPA was dissolved in ethanol/H20 (1:1) and 0.01% TX-100 and was added to the reaction buffer. The presence of ethanol was taken into account, and controls in the absence of ATX and/or LPC were employed to correct the kinetic data. ATX was incubated for 30 min with different concentrations of inhibitors and subsequently added to the reaction buffer containing 150 μM 18:1 LPC and different starting concentrations of 18:1 LPA. The slopes were calculated from at least 60 min after the addition of ATX. The percentage of LPA-driven activation was normalized to ATX in the absence of LPA and inhibitors, which represented 100% activity. Last, the activation constant or AC50 was obtained from the following equation [drawing 2] 2

Test [4] has as its system LPA1-HA-expressing HeLa-Flp-In cells. In words: Confocal microscopy for LPA1 internalization. The class given is cell-based, Human. Conditions: 1 μM 18:1 LPC, 20 nM ATX, 15 min. Here is the method:
Human LPA1 cDNA was amplified by PCR to remove its stop codon and add the restriction sites for BamHI and XhoI, after which it was subcloned in an in-house produced pDNA5.1-HA vector. 0.2 μg of the resulting vector and 1.8 μg of pOG44 Flp-Recombinase Expression Vector (Invitrogen) were incubated with 6 μL of Fugene6 (Invitrogen) in 200 μL of OptiMEM (Gibco) for 30 min, after which the mix was added to previously produced HeLa-Flp-In cells.[43] Their medium was refreshed 24 h later, and selection with 1 μg/mL puromycin was started and maintained with resistant cells.
Serum-starved LPA1-HA-expressing HeLa-Flp-In cells cultured on 24 mm (#1,5) were treated with 1 μM LPC and 20 nM ATX in the presence or absence of 22 or 23 for 15 min in DMEM containing 0.05% fatty acid-free BSA. Subsequently, coverslips were washed and fixed with 4% PFA, permeabilized with 0.1% Triton X-100, and blocked with 2% BSA for 1 h. Incubation with anti-HA antibody (3F10 from Roche Diagnostics; 1:200) was done for 1 h, followed by incubation with donkey anti-rat Alexa Fluor 488-conjugated antibody (A-21208 from Invitrogen; 1:200) for 1 h at room temperature. For confocal microscopy, cells were washed with PBS, mounted with Immnuno-MountTM (Thermo Scientific), visualized on a LEICA TCS-SP5 confocal microscope (63× objective), and analyzed using ImageJ software.

A value given as a limit tells only on which side of the number the result lay.

As usually defined, the inhibition is the drop in the measured response relative to a control, in per cent. Regarding `COc1ccc([B-](F)(F)F)cc1` [Compound 6], the inhibition at 100 µM at ATX [1] came out at 57%.
The same measure, in the same setting: under `COc1ccc(B(O)O)cc1` [Compound 7] stands 37%.
The term IC50 denotes the concentration at which inhibition is half-maximal. Low readings indicate inhibition by little substance, high ones a need for much substance. Consider `C[C@H](CCC(=O)NCCCOc1ccc(S(N)(=O)=O)cc1)[C@H]1CC[C@H]2C3[C@@H](O)C[C@@H]4C[C@H](O)CC[C@]4(C)[C@H]3CC[C@]12C` (stereo partly drawn) [Compound 10], for which, at ATX [1] (LPC hydrolysis assay), the half-inhibitory concentration (IC50) was found to be 400 nM and the “Residual Activity (%)” value worked out at 75%.
In the same order, the values of `C[C@H](CCC(=O)NCCOc1ccc(S(N)(=O)=O)cc1)[C@H]1CC[C@H]2C3[C@@H](O)C[C@@H]4C[C@H](O)CC[C@]4(C)[C@H]3CC[C@]12C` (stereo partly drawn) [Compound 11] are above 10000 nM and 31%.
The like results for `C[C@H](CCC(=O)NCCCCOc1ccc(S(N)(=O)=O)cc1)[C@H]1CC[C@H]2C3[C@@H](O)C[C@@H]4C[C@H](O)CC[C@]4(C)[C@H]3CC[C@]12C` (stereo partly drawn) [Compound 12] were, in that order, above 10000 nM and 66%.
As for `C[C@H](CCC(=O)NCCOc1cccc(B2OC(C)(C)C(C)(C)O2)c1)[C@H]1CC[C@H]2C3[C@@H](O)C[C@@H]4C[C@H](O)CC[C@]4(C)[C@H]3CC[C@]12C` (stereo partly drawn) [Compound 13], at ATX [1] (LPC hydrolysis assay), the IC50 stood at 14000 nM and the “Residual Activity (%)” value is given as 14.7%.
Consider `C[C@H](CCC(=O)NCCOc1ccc(B2OC(C)(C)C(C)(C)O2)cc1)[C@H]1CC[C@H]2C3[C@@H](O)C[C@@H]4C[C@H](O)CC[C@]4(C)[C@H]3CC[C@]12C` (stereo partly drawn) [Compound 14], for which, on ATX [1] (LPC hydrolysis assay), the concentration for half-maximal inhibition (IC50) worked out at 1500 nM and the “Residual Activity (%)” value was 1.4%. The “fold increase in potency over meta-substituted pinacol boronate 13” value on ATX [1] (ethyl-linked, para against meta) is recorded as 10 fold.
With `C[C@H](CCC(=O)NCCCOc1cccc(B2OC(C)(C)C(C)(C)O2)c1)[C@H]1CC[C@H]2C3[C@@H](O)C[C@@H]4C[C@H](O)CC[C@]4(C)[C@H]3CC[C@]12C` (stereo partly drawn) [Compound 15], on ATX [1] (LPC hydrolysis assay), the IC50 was 150 nM and the “Residual Activity (%)” value was found to be 1.7%.
The like results for `C[C@H](CCC(=O)NCCCOc1ccc(B2OC(C)(C)C(C)(C)O2)cc1)[C@H]1CC[C@H]2C3[C@@H](O)C[C@@H]4C[C@H](O)CC[C@]4(C)[C@H]3CC[C@]12C` (stereo partly drawn) [Compound 16] were, in that order, 70 nM and 0.3%.
The like results for `C[C@H](CCC(=O)NCCCOc1ccc([B-](F)(F)F)cc1)[C@H]1CC[C@H]2C3[C@@H](O)C[C@@H]4C[C@H](O)CC[C@]4(C)[C@H]3CC[C@]12C.[Na+]` (stereo partly drawn) [Compound 17] were, in that order, 70 nM and 1.1%.
In the same order, the values of `C[C@H](CCC(=O)NCCCOc1ccc(B(O)O)cc1)[C@H]1CC[C@H]2C3[C@@H](O)C[C@@H]4C[C@H](O)CC[C@]4(C)[C@H]3CC[C@]12C` (stereo partly drawn) [Compound 18] are 50 nM and 0.6%.
Take `C[C@H](CCC(=O)N1CCC(Oc2ccc(B3OC(C)(C)C(C)(C)O3)cc2)CC1)[C@H]1CC[C@H]2C3[C@@H](O)C[C@@H]4C[C@H](O)CC[C@]4(C)[C@H]3CC[C@]12C` (stereo partly drawn) [Compound 19]: at ATX [1] (LPC hydrolysis assay), it took 80 nM to reach half-maximal inhibition (IC50) and the “Residual Activity (%)” value is 0%.
As to `C[C@H](CCC(=O)N1CC[C@@H](Oc2ccc(B3OC(C)(C)C(C)(C)O3)cc2)C1)[C@H]1CC[C@H]2C3[C@@H](O)C[C@@H]4C[C@H](O)CC[C@]4(C)[C@H]3CC[C@]12C` (stereo partly drawn) [Compound 20], at ATX [1] (LPC hydrolysis assay), the IC50 was 210 nM and the “Residual Activity (%)” value amounted to 8%.
In the same order, the values of `C[C@H](CCC(=O)N1CC[C@H](Oc2ccc(B3OC(C)(C)C(C)(C)O3)cc2)C1)[C@H]1CC[C@H]2C3[C@@H](O)C[C@@H]4C[C@H](O)CC[C@]4(C)[C@H]3CC[C@]12C` (stereo partly drawn) [Compound 21] are 200 nM and 10%.
What is called EC50 is the concentration giving half of the maximal effect. A word on the Ki: it is the dissociation constant of the complex between target and ligand, obtained from inhibition or displacement. Read a low Ki as tighter binding. For `C[C@H](CCC(=O)N1CCC(Oc2ccc([B-](F)(F)F)cc2)CC1)[C@H]1CC[C@H]2C3[C@@H](O)C[C@@H]4C[C@H](O)CC[C@]4(C)[C@H]3CC[C@]12C.[K+]` (stereo partly drawn) [Compound 22], the concentration for a half-maximal effect (EC50) in the test on BJeH fibroblasts (BJeH cells, 20 nM ATX, 1 μM 18:1 LPC, read-out: EC50 (P-AKT and P-ERK levels)) is around 100 nM. Also, the Emax in the test with BJeH fibroblasts (BJeH, compared to uninhibited ATX incubated with LPC, read-out: reduction of maximal effective cell response (P-AKT and P-ERK)) is around 60%. On ATX [2] (Akaike's informative criteria), the “percentage of competitive versus non-competitive inhibition” value was found to be 99%. Besides, the mode of inhibition entry at ATX [2] (LPC hydrolysis) was “competitive”. On ATX [2] (LPC titration at increasing inhibitor concentrations, Michaelis-Menten nonlinear regression), this compound came in with a Ki of 24 ± 4 nM. Moreover, the “α (partial mixed inhibition model)” value at ATX [2] (α > 1 competitive, α = 1 non-competitive) was determined as 9.7. The IC50 against ATX [1] (14:0 LPC, 150 μM LPC) was found to be 84 nM; on ATX [1] (16:0 LPC, 150 μM LPC), 72 nM; against ATX [1] (18:1 LPC, 150 μM LPC), 45 nM; against ATX [1] (20:0 LPC, 150 μM LPC), 32 nM; at ATX [1] (LPC hydrolysis assay), 50 nM. In addition, the “Residual Activity (%)” value stood at 1% on ATX [1] (14:0 LPC, 150 μM LPC); 12% at ATX [1] (16:0 LPC, 150 μM LPC); 5% at ATX [1] (18:1 LPC, 150 μM LPC); 49% on ATX [1] (20:0 LPC, 150 μM LPC, % of catalytic rate of inhibitor-free control); 0% on ATX [1] (LPC hydrolysis assay). Moreover, on ATX [3], the “LPA-mediated activation of ATX activity” value is recorded as “dose-dependent decrease”. Further, in test [4], the “decrease of LPA1 internalization” value is “approximately 75%”.
